Results published in patent US8937180B2, “Method for preparing a polymer conjugate” (Nektar Therapeutics, priority 2006, dated 2015).

What was measured:
[1] = Maximum tolerated dose in tumor-bearing athymic nude mice; settings: mouse, in vivo, intravenous
DU-145 prostate tumors = test: Anti-tumor activity in mice implanted with DU-145 prostate tumors; settings: two doses (q7d×2), FIG. 2

CC(=O)O[C@@]12CO[C@@H]1C[C@H](O)[C@@]1(C)C(=O)[C@H](O)C3=C(C)[C@@H](OC(=O)[C@H](O)[C@@H](NC(=O)OC(C)(C)C)c4ccccc4)C[C@@](O)([C@@H](OC(=O)c4ccccc4)[C@H]21)C3(C)C [docetaxel, Docetaxel]
MTD at 78 day ([1]; athymic nude, mice with DU-145 prostate tumors): ≤ 30 mg/kg
MTD ([1]; athymic nude mice, H460 NSCLC tumors, 2nd study): ≤ 30 mg/kg
anti-tumor effect on tumor growth (DU-145 prostate tumors; 3 doses tested, 78 day observation period): good activity
time after which tumors recover and grow (DU-145 prostate tumors): 30 to 50 days
